From patent publication US8471032B2, “Benzimidazole compound in crystal form and salt thereof” (Mitsubishi Tanabe Pharma Corporation, priority 2008, dated 2013)
≈ marks a conversion by molar mass, not a printed value.

Tests used:
[1] = Water adsorption measurement (DVS-1 water adsorption apparatus), index of hygroscopicity; format: physicochemical; conditions: relative humidity changed within 0% to 95%; amount of change based on the weight at relative humidity 0%
Description: The water adsorption measurement, which becomes an index of hygroscopicity, was performed using a DVS-1 type water adsorption apparatus (manufactured by SMS) under the following conditions. Using a sample (about 6-12 mg), the relative humidity was changed within the relative humidity range of 0% to 95%. The weight change was recorded for each predetermined relative humidity, and converted to the amount of change (%) based on the weight at relative humidity 0%. […] As to this compound, the zero point was amended based on the moisture value of the sample measured by the Karl Fischer's method, and the weight change was converted to the amount of change (%).

[2] = Solubility in water at 37° C. (HPLC, calibration curve method); format: physicochemical; conditions: shaken for 4 hr
Description: The solubility of the obtained compounds in water at 37° C. was measured under the following conditions. An adequate amount of each sample was taken, water was added to each sample, and the mixture was shaken at 37° C. for 4 hr. The supernatant was filtered through a filter, and diluted with a mixed solution of TFA/acetonitrile/water=(0.05:30:70) as necessary to give a sample solution. The concentration (mg/ml) of the sample solution was measured by high performance liquid chromatography (HPLC) with a calibration curve method, and taken as the solubility in water at 37° C.
apparatus: HPLC System Class-VP (SHIMADZU Corporation)
detector: photodiode array detector
measurement wavelength range: 200-370 nm
column: Inertsil ODS-3V (4.6 mm9×150 mm)
column temperature: 40° C.
mobile phase: SOLUTION A 0.05% aqueous trifluoroacetic acid solution • SOLUTION B 0.05% trifluoroacetic acid-acetonitrile solution • A:B=70:30 (Isocratic Elution)

CNC(=O)Cn1c(=O)n(C2CCN([C@@H]3Cc4cccc5cccc3c45)CC2)c2ccccc21 [Example 8, (R)-2-{3-[1-(acenaphthen-1-yl)piperidin-4-yl]-2,3-dihydro-2-oxo-benzimidazol-1-yl}-N-methylacetamide]
weight increase (water adsorption / moisture absorption) [1]: 2.0%

CNC(=O)Cn1c(=O)n(C2CCN([C@@H]3Cc4cccc5cccc3c45)CC2)c2ccccc21 [Example 6, (R)-2-{3-[1-(acenaphthen-1-yl)piperidin-4-yl]-2,3-dihydro-2-oxo-benzimidazol-1-yl}-N-methylacetamide]
weight increase (water adsorption / moisture absorption) [1]: 0.4%
solubility in water [2]: > 2 mg/mL

CNC(=O)Cn1c(=O)n(C2CCN([C@@H]3Cc4cccc5cccc3c45)CC2)c2ccccc21 [Example 17, (R)-2-{3-[1-(acenaphthen-1-yl)piperidin-4-yl]-2,3-dihydro-2-oxo-benzimidazol-1-yl}-N-methylacetamide]
solubility in water [2]: 0.01 mg/mL (≈ 22.7 µM)

CNC(=O)Cn1c(=O)n(C2CCN([C@@H]3Cc4cccc5cccc3c45)CC2)c2ccccc21 [Example 2, (R)-2-{3-[1-(acenaphthen-1-yl)piperidin-4-yl]-2,3-dihydro-2-oxo-benzimidazol-1-yl}-N-methylacetamide]
weight increase (water adsorption / moisture absorption) [1]: 0.2%

CNC(=O)Cn1c(=O)n(C2CCN([C@@H]3Cc4cccc5cccc3c45)CC2)c2ccccc21 [Example 10, (R)-2-{3-[1-(acenaphthen-1-yl)piperidin-4-yl]-2,3-dihydro-2-oxo-benzimidazol-1-yl}-N-methylacetamide]
weight increase (water adsorption / moisture absorption) [1]: 1.3%
solubility in water [2]: 0.3 mg/mL (≈ 681 µM)

CNC(=O)Cn1c(=O)n(C2CCN([C@@H]3Cc4cccc5cccc3c45)CC2)c2ccccc21 [Example 16, (R)-2-{3-[1-(acenaphthen-1-yl)piperidin-4-yl]-2,3-dihydro-2-oxo-benzimidazol-1-yl}-N-methylacetamide]
solubility in water [2]: 0.01 mg/mL (≈ 22.7 µM)

CNC(=O)Cn1c(=O)n(C2CCN([C@@H]3Cc4cccc5cccc3c45)CC2)c2ccccc21 [Example 1, (R)-2-{3-[1-(acenaphthen-1-yl)piperidin-4-yl]-2,3-dihydro-2-oxo-benzimidazol-1-yl}-N-methylacetamide]
weight increase (water adsorption / moisture absorption) [1]: 0.2%
solubility in water [2]: > 2 mg/mL
